Laboratory results from US11358863B2, “Method and composition of humidity-controlled generation of chlorine dioxide in polymers and superabsorbent hydrogels” (priority 2017, dated 2022).

What was measured:
Type in all cases: cell-based
[1] = test system: mold on cotton-based parachute sleeve; assay: Mold growth on moldy cotton parachute sleeve sample on Potato Dextrose Agar after ClO2 treatment; settings: 10 mL of 100 ppm ClO2 solution, mixed intermittently over 20 minutes, quenched; stored at 30° C. for 5 days
Method: Dry reagents of HMS and chlorite ion were added to distilled de-ionized water to produce chlorine dioxide. A cotton-based parachute sleeve that is characteristically used to hold and release parachutes during jumps and to store folded parachutes after jumps was chosen for use. […] Approximately 1×1 in^2 was cut from a parachute sleeve and placed using sterile forceps into a Petri dish of sterile Potato Dextrose Agar (PDA) with a few drops of sterile water. […] A 1×1 in^2 sample was removed from the moldy dish using a sterile technique and placed in a new sterile Petri dish of PDA with sterile water. A second 1×1 in^2 sample was placed in a plastic pouch with 10 mL of 100 ppm ClO2 solution and mixed in a paddle-blender for 2 minutes intermittently over a 20 minute period. At 20 min, reductant was added to quench any excess ClO2, and the sample was placed on a fresh Petri dish of PDA. Both samples were stored at 30° C. for 5 days.

[2] = test system: spores of Bacillus cereus; assay: Microbiological validation of aqueous ClO2 using Bacillus cereus spores, serial dilutions and plate-counting on Nutrient Agar; settings: dilutions 1-10^-6, NA plates 18 hours at 37° C.
[3] = test system: Bacillus atrophaeus spores; assay: Clamshell package with chlorite/HMS absorbent pad in humid desiccator: ethylene oxide gas sterility test strip; settings: gaseous ClO2 about 25-50 ppm after 24 hours, 89% RH, 35° C.
Excerpt: (§1) We tested a clamshell package made of plastic (commonly PLA or polyethylene terephthalate (PET)), typical of the packaging used to contain fresh produce or berries as sold in supermarkets, convenience stores, and other grocery stores. These clamshell packages have vent holes that allow the free-flow exchange of gases between the interior of the package and its surrounding environment.
(§2) A beaker with two ClO2 indicator test strips (high range, 0-500 ppm), one Geobacillus stearothermophilus 7953 autoclave sterility test strip and one Bacillus atrophaeus ethylene oxide gas sterility test strip, was placed inside the clamshell package. A piece of blue material comprising non-woven textiles and superabsorbent hydrogel, characteristic of a common disposable diaper, was cut into a 3×1 inch rectangle. Dry sodium chlorite and dry HMS were placed on spatially separate regions of the material. The blue absorbent pad was sprayed with a small amount of water, and then folded in half. The entire clamshell package (containing the indicator strips, microbial test strips, and blue pad with reactive reagents) was placed inside a desiccator charged with […] The entire desiccator assembly, containing the salt solution in the bottom and the clamshell package above the solution on a perforated platform, was placed inside an incubator at 35° C., which re-equilibrated and increased RH to 89%. […]

[4] = test system: Geobacillus stearothermophilus 7953 spores; assay: Clamshell package with chlorite/HMS absorbent pad in humid desiccator: autoclave sterility test strip; settings: gaseous ClO2 about 25-50 ppm after 24 hours, 89% RH, 35° C.
Excerpt: as §1
as §2, with “a” for “a desiccator charged with”

`[O][Cl+][O-]` [ClO2, chlorine dioxide] was tested, and the “mold growth on cotton sleeve sample and PDA” value [1] was “no signs of mold growth”, the “growth of B. cereus from inoculated protective garment fabric” value ([2]; 10 microliter inoculum on 1×1 in^2 fabric, 100 ppm ClO2 solution, paddle-blender 15 min, quenched) was “no discernible growth” and the “colonies on NA plates (plate-counts)” value ([2]; B. cereus spore inoculum in 10 mL of 100 ppm aqueous ClO2 solution, paddle-stomacher 15 min, quenched with reductant) was “no discernible colonies”. For the same compound, the “microbial growth of B. atrophaeus indicator test strip” value [3] was “negative for microbial growth” and the “microbial growth of G. stearothermophilus indicator test strip” value [4] was “negative for microbial growth”.
